Tests used:
c-Cbl (residues 47-435) = c-Cbl (residues 47-435) (Homo sapiens (Human), UniProt P22681); assay: c-Cbl SPR assay; type: binding; conditions: 20° C.
Outline: (§1)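 Where a chaser compound was used, % compound bound was calculated as (1−(RUT/RUT0))*100 relative to a prior chaser injection and fitted to a single exponential for kd. The single cycle titration (max 500 nM) was then fitted with kd held fixed.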

c-Cbl = c-Cbl (Homo sapiens (Human), UniProt P22681); assay: C-Cbl LCK Ub TR-FRET assay (C-cbl Lck HTRF); type: biochemical
Outline: (§2)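 Signal is read once the detection mix has stood 20 min at ambient temperature. Curves are anchored by DMSO as maximum and by omission of LCK as minimum.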

[1] = target: Human Cbl-b (residues 40-426) (Homo sapiens (Human), UniProt Q13191); assay: Cbl-b SPR assay; type: binding; conditions: for Fold of selectivity: C-cbl SPR Kd vs Cbl-b SPR Kd; for Kd: SPR, 20° C.
Outline: as §1

Cbl-b = Cbl-b (Homo sapiens (Human), UniProt Q13191); assay: Cbl-b LCK Ub TR-FRET assay (Cbl-b Lck HTRF); type: biochemical; conditions: for IC50: Cbl-b LCK Ub TR-FRET; for fold-selectivity (Cbl-b over C-cbl): ratio C-cbl Lck HTRF IC50 / Cbl-b Lck HTRF IC50
Outline: as §2

c-Cbl (residues 47-435), sequence (P22681 47-435): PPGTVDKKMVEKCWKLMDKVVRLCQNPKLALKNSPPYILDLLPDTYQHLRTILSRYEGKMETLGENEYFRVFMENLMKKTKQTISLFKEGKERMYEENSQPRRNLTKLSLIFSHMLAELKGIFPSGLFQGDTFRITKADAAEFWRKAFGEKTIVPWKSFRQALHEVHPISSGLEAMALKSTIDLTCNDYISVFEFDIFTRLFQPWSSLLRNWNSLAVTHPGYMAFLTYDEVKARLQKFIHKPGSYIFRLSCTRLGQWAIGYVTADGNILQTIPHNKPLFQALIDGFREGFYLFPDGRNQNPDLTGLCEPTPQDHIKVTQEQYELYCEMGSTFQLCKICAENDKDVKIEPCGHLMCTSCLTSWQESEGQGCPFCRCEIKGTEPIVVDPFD
c-Cbl, sequence (P22681 47-435): as above
Human Cbl-b (residues 40-426), sequence (Q13191 40-426): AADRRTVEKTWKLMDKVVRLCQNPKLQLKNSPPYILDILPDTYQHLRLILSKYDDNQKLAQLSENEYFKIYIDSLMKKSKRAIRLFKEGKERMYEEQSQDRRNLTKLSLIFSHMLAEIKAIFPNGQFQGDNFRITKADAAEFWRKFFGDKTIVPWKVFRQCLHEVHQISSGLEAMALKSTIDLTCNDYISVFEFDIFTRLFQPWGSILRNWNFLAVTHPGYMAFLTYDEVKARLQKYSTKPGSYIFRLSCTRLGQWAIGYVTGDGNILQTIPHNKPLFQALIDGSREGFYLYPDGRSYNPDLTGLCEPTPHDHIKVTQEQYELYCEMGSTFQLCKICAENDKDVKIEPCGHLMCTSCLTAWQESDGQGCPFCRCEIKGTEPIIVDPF
Cbl-b, sequence (Q13191 40-426): as above

| Compound | Kd (c-Cbl (residues 47-435)) | IC50 (c-Cbl) | Fold of selectivity [1] | Kd [1] | IC50 (Cbl-b) | fold-selectivity (Cbl-b over C-cbl) (Cbl-b) |
| --- | --- | --- | --- | --- | --- | --- |
| CO[C@H]1C[C@](c2cc(N[C@@H](C)CC#N)cc(N3Cc4c(cc(CNC5(C)CCC5)cc4C(F)(F)F)C3=O)c2)(c2nncn2C)C1 (single isomer, unassigned) [Compound 225] | 39 nM | 72 nM | 5.6× | 6.9 nM | 18 nM | 4.0x |
| CCNc1cc([C@]2(c3nncn3C)C[C@@H](C)C2)cc(N2Cc3c(cc(CNC4(C)CCC4)cc3C(F)F)C2=O)n1 [Compound 274, 4-(difluoromethyl)-2-(6-(ethylamino)-4-((1s,3s)-3-methyl-1-(4-methyl-4H-1,2,4-triazol-3-yl)cyclobutyl)pyridin-2-yl)-6-(((1-methylcyclobutyl)amino)methyl)isoindolin-1-one] | 0.2 nM | 6.9 nM | 2.0× | 0.1 nM | 7.5 nM | 0.91x |
| Cn1cnnc1[C@H](c1cccc(N2Cc3c(Cl)cc(CNC4(C)CCC4)cc3C2=O)c1)[C@H]1C[C@H](F)C1 (single isomer, unassigned) [Compound 320] | 2.2 nM | 7.5 nM | 5.5× | 0.4 nM | 5.6 nM | 1.3x |
| Cn1cnnc1[C@@H](c1cccc(N2Cc3c(cc(CNC4(C)CCC4)cc3C(F)(F)F)C2=O)c1)C1CC(OCC(F)F)C1 (stereo partly drawn) [Compound 260, 2-(3-((R)-((1r,3R)-3-(2,2-difluoroethoxy)cyclobutyl)(4-methyl-4H-1,2,4-triazol-3-yl)methyl)phenyl)-6-(((1-methylcyclobutyl)amino)methyl)-4-(trifluoromethyl)isoindolin-1-one] | 2200 nM | 2400 nM | 8.8× | 590 nM | 450 nM | 5.4x |
| Cn1cnnc1[C@H](c1cccc(N2Cc3c(cc(CNC4(C)CCC4)cc3C(F)(F)F)C2=O)c1)[C@H]1C[C@@H](C#N)C1 (single isomer, unassigned) [Compound 141] | 9.4 nM | 12 nM | 5.1× | 1.9 nM | 7.6 nM | 1.6x |
| Cn1cnnc1[C@@H](C[C@H]1CCOC1)c1cccc(N2Cc3c(cc(CNC4(C)CCC4)cc3C(F)(F)F)C2=O)c1 [Compound 277, 2-(3-((S)-1-(4-methyl-4H-1,2,4-triazol-3-yl)-2-((S)-tetrahydrofuran-3-yl)ethyl)phenyl)-6-(((1-methylcyclobutyl)amino)methyl)-4-(trifluoromethyl)isoindolin-1-one] | 7700 nM | 8600 nM | 5.3× | 1400 nM | 3600 nM | 2.3x |
| C[C@H](NC1(C)CCC1)c1cc2c(c(C(F)(F)F)c1)CN(c1cccc(C(c3nncn3C)C3COC3)c1)C2=O (stereo partly drawn) [Compound 285] | 0.8 nM | 6.5 nM | 1.1× | 0.7 nM | 6 nM | 1.1x |
| CO[C@]1(C)C[C@@](c2cccc(N3Cc4c(cc(CNC5(C)CCC5)cc4C(F)(F)F)C3=O)c2)(c2nncn2C)C1 [Compound 28, 2-(3-((1r,3r)-3-methoxy-3-methyl-1-(4-methyl-4H-1,2,4-triazol-3-yl)cyclobutyl)phenyl)-6-(((1-methylcyclobutyl)amino)methyl)-4-(trifluoromethyl)isoindolin-1-one] | 13 nM | 35 nM | 5.5× | 2.5 nM | 13 nM | (2.7x) |
| CO[C@H]1C[C@](c2cc(OC3COC3)cc(N3Cc4c(cc(CNC5(C)CCC5)cc4C(F)(F)F)C3=O)c2)(c2nncn2C)C1 [Compound 242, 2-(3-((1r,3r)-3-methoxy-1-(4-methyl-4H-1,2,4-triazol-3-yl)cyclobutyl)-5-(oxetan-3-yloxy)phenyl)-6-(((1-methylcyclobutyl)amino)methyl)-4-(trifluoromethyl)isoindolin-1-one] | 130 nM | 220 nM | 5.5× | 23 nM | 56 nM | 4.0x |
| Cn1cnnc1C1(c2cccc(N3Cc4c(cc(CNC5(C)CCC5)cc4C(F)(F)F)C3=O)c2)CCOCC1 [Compound 282, 2-(3-(4-(4-methyl-4H-1,2,4-triazol-3-yl)tetrahydro-2H-pyran-4-yl)phenyl)-6-(((1-methylcyclobutyl)amino)methyl)-4-(trifluoromethyl)isoindolin-1-one] | 2300 nM | 2800 nM | 10× | 230 nM | 410 nM | 6.5x |

— patent US12187709B2 (Genentech, Inc., priority 2021, dated 2025)
